This is an account of results in the supplement of paper PMC5579334.

Assay [1] relates to HSC2 (primary human Schwann cells). Kind of assay: drug sensitivity score (DSS, CellTox-Green cytotoxicity, 72 h) (DSS (dimensionless)); higher = more cytotoxic; extreme values may be limits of the assay. In short, it runs like this: (§1)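 For 72 h at 37 °C, MPNST cell lines and primary human Schwann cells were exposed in 384-well plates to five 10-fold compound dilutions. CellTox-Green, added before seeding at a final 1:1000 dilution, gave fluorescence from DNA released by disrupted cells. Signals were scaled to vehicle and positive-control wells, cultures failing plate quality control were left out, and four-parameter logistic fits were applied. Relative IC50 and drug sensitivity score were derived from the fits, with IC50 censored at the top concentration.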

Assay [2] concerns HS-PSS. Described as above. In short, it runs like this:
as §1

Assay [3] has as its system STS26T. Described as above. Put shortly:
as §1

Assay [4] concerns ST8814. The description is as above. In short, it runs like this: as §1
The test system of assay [5] is HSC1 (primary human Schwann cells). The assay is described as above. In short, it runs like this:
as §1

Assay [6] deals with S1507-2. The description is as above. Put shortly:
as §1

Assay [7] has as its system HSC2 (primary human Schwann cells). Description: % inhibition of CellTiter-Glo viability at highest tested concentration (72 h), relative to DMSO and benzethonium chloride controls; higher = more inhibition. In short, it runs like this:
(§2)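 MPNST cell lines and primary human Schwann cells were seeded at 750–1000 cells per well into 384-well plates preprinted with each compound at five concentrations in 10-fold steps, then incubated 72 h at 37 °C, 5% CO2. CellTiter-Glo ATP luminescence gave viability, scaled between vehicle and positive-control wells, with duplicates averaged where present. Curves were fitted with a four-parameter logistic model. Percent inhibition refers to the top concentration, while drug sensitivity score and relative IC50, censored at the top concentration, come from these fits.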
(In general: ATP-based viability assays read luminescence as a measure of living cells.)

Assay [8] relates to HS-PSS. The description is as above. Put shortly: as §2
Assay [9] has as its system STS26T. The description is as above. Put shortly: as §2
For assay [10], the system named is S462. The description is as above. In short, it runs like this: as §2
In assay [11] the test system is HS-Sch-2. The description is as above. In short, it runs like this: as §2
The test system of assay [12] is ST8814. The description is as above. Put shortly:
as §2

The test system of assay [13] is HSC1 (primary human Schwann cells). Described as above. In short, it runs like this:
as §2

For assay [14], the system named is YST-1. Described as above. Put shortly:
as §2

The test system of assay [15] is S1507-2. The description is as above. Put shortly: as §2
Assay [16] has as its system HSC2 (primary human Schwann cells). Description: drug sensitivity score (DSS, CellTiter-Glo viability, 72 h) (DSS (dimensionless)); higher = more sensitive; extreme values may be limits of the assay. Put shortly: as §2
For assay [17], the system named is HS-PSS. The assay is described as above. Put shortly:
as §2

The test system of assay [18] is STS26T. The description is as above. Put shortly: as §2
Assay [19] concerns S462. Described as above. Put shortly: as §2
Assay [20] relates to HS-Sch-2. The assay is described as above. In short, it runs like this: as §2
In assay [21] the test system is ST8814. The assay is described as above. Put shortly: as §2
Assay [22] concerns HSC1 (primary human Schwann cells). The description is as above. Put shortly:
as §2

For assay [23], the system named is YST-1. The assay is described as above. In short, it runs like this: as §2
Assay [24] relates to S1507-2. The assay is described as above. In short, it runs like this:
as §2

± gives the standard deviation of the averaged measurements.

Consider `CNC(=O)c1ccccc1Sc1ccc2c(/C=C/c3ccccn3)n[nH]c2c1` [Axitinib] (max concentration tested 10000 nM), for which the drug sensitivity score amounted to 0.0899 in [1]; 0 in the assay with HS-PSS [2]; 6.29 in the assay with STS26T [3]; 0.581 in the assay with ST8814 [4]; 1.46 in assay [5]; 1.12 ± 1.1 with S1507-2 [6]. Further, the drug sensitivity score turned out to be 6.51 in assay [16]; 2.26 in the assay on HS-PSS [17]; 5.81 in the assay on STS26T [18]; 6.12 ± 0.37 with S462 [19]; 6.01 in the assay on HS-Sch-2 [20]; 5.17 with ST8814 [21]. For the same compound, the figures for the drug sensitivity score (in assay [22]; in the assay on YST-1 [23]; in the assay on S1507-2 [24]) were 7.23, 4.01 and 4.27 ± 3.4, respectively. For the same compound, the “% inhibition” value in assay [7] was 53.8%; with HS-PSS [8], 38%; in the assay with STS26T [9] it was 61.1%; with S462 [10], 52.1 ± 6.1%; in the assay with HS-Sch-2 [11] it was 67.8%; in the assay with ST8814 [12], 52.7%. The figures for the “% inhibition” value (in assay [13]; in the assay with YST-1 [14]; with S1507-2 [15]) were 66.9%, 39.9% and 38.5 ± 19%, respectively.
Take `Nc1ncn([C@@H]2O[C@H](CO)[C@@H](O)[C@H]2O)c(=O)n1` [Azacitidine] (max concentration tested 10000 nM): the drug sensitivity score in assay [1] came to 0; with HS-PSS [2], 0; in the assay on STS26T [3] it was 0; in the assay on ST8814 [4], 0; in assay [5], 0; with S1507-2 [6], 2.61 ± 3.7. Besides, the drug sensitivity score came to 3.59 in assay [16]; 0.1 in the assay with HS-PSS [17]; 1.02 in the assay on STS26T [18]; 2.02 ± 0.98 in the assay with S462 [19]; 0 in the assay with HS-Sch-2 [20]; 0.0452 in the assay with ST8814 [21]. Also, the drug sensitivity score is 5.39 in [22], 0.39 in the assay with YST-1 [23] and 0 in the assay with S1507-2 [24]. Besides, the “% inhibition” value in assay [7] came to 68.2%; in the assay on HS-PSS [8], 15.6%; in the assay on STS26T [9], 29.9%; with S462 [10] it was 34.5 ± 9.2%; in the assay with HS-Sch-2 [11], 10.9%; with ST8814 [12] it was 12.4%. Moreover, the “% inhibition” value in assay [13] is 75.2%; with YST-1 [14], 22.1%; in the assay with S1507-2 [15] it was 3.07 ± 2.9%.
Turning to `CC[C@@H]1C(=O)N(C)c2cnc(Nc3ccc(C(=O)NC4CCN(C)CC4)cc3OC)nc2N1C1CCCC1` [BI 2536] (max concentration tested 1000 nM), the drug sensitivity score in [1] is 20.1; in the assay on HS-PSS [2], 0.25; in the assay with STS26T [3], 32.3; with ST8814 [4], 19.5; in [5] it was 11.3; with S1507-2 [6] it was 15.6 ± 0.4. In addition, the drug sensitivity score turned out to be 17.4 in [16]; 15 in the assay on HS-PSS [17]; 29.6 in the assay on STS26T [18]; 28.42 ± 0.2 in the assay with S462 [19]; 24.5 with HS-Sch-2 [20]; 22.1 in the assay with ST8814 [21]. The drug sensitivity score in [22] turned out to be 13.3; with YST-1 [23], 20.5; with S1507-2 [24], 19.5 ± 0.21. Moreover, the “% inhibition” value stood at 79.4% in assay [7]; 61% with HS-PSS [8]; 75.9% in the assay with STS26T [9]; 101.6 ± 0.24% in the assay on S462 [10]; 66.8% in the assay on HS-Sch-2 [11]; 84.1% with ST8814 [12]. Besides, the “% inhibition” value was 62.9% in assay [13], 54.1% with YST-1 [14] and 86.7 ± 3% in the assay on S1507-2 [15].
With `COc1c(C)cnc(Cn2cnc3c(Cl)nc(N)nc32)c1C` [BIIB021] (max concentration tested 10000 nM), the drug sensitivity score in assay [1] was 19.7; in the assay on HS-PSS [2], 5.44; in the assay with STS26T [3], 11.8; with ST8814 [4] it was 9.2; in assay [5], 20; in the assay with S1507-2 [6], 15.8 ± 2.9. The drug sensitivity score in assay [16] came to 17.6; with HS-PSS [17], 14.4; with STS26T [18], 16.9; in the assay with S462 [19], 20.083 ± 0.0076; in the assay with HS-Sch-2 [20] it was 24.5; in the assay with ST8814 [21] it was 17.8. Also, the values for the drug sensitivity score (in [22]; in the assay on YST-1 [23]; with S1507-2 [24]) were 16.2, 15 and 18.1 ± 1.3, respectively. The “% inhibition” value in [7] came to 96.9%; in the assay with HS-PSS [8], 88%; with STS26T [9], 90.3%; in the assay on S462 [10], 97 ± 1.1%; in the assay with HS-Sch-2 [11] it was 99.9%; in the assay on ST8814 [12], 96.1%. Further, the results for the “% inhibition” value (in [13]; in the assay on YST-1 [14]; in the assay with S1507-2 [15]) were 96.4%, 84.3% and 98.34 ± 0.36%, respectively.
Regarding `O=C(/C=C/c1cccc(S(=O)(=O)Nc2ccccc2)c1)NO` [Belinostat] (max concentration tested 10000 nM), the drug sensitivity score in assay [1] amounted to 8.85; in the assay with HS-PSS [2], 4.69; in the assay on STS26T [3], 12.7; in the assay on ST8814 [4], 12.4; in assay [5] it was 8.65; in the assay on S1507-2 [6] it was 12.2 ± 2. For the same compound, the drug sensitivity score in assay [16] stood at 13.2; in the assay with HS-PSS [17] it was 10.8; with STS26T [18], 13; with S462 [19], 12.7 ± 0.28; in the assay with HS-Sch-2 [20] it was 13.7; in the assay on ST8814 [21], 17.2. The drug sensitivity score was 15.4 in assay [22], 18.1 with YST-1 [23] and 16.6 ± 0.76 with S1507-2 [24]. The “% inhibition” value in assay [7] was found to be 101%; in the assay with HS-PSS [8], 88.1%; with STS26T [9], 98.9%; with S462 [10], 102.5 ± 0.29%; in the assay with HS-Sch-2 [11], 101%; in the assay with ST8814 [12] it was 102%. The entries for the “% inhibition” value (in [13]; in the assay on YST-1 [14]; in the assay with S1507-2 [15]) were 102%, 101% and 104 ± 1.3%, respectively.
With `Cn1c(CCCC(=O)O)nc2cc(N(CCCl)CCCl)ccc21` [Bendamustine] (max concentration tested 10000 nM), the drug sensitivity score (in assay [1]; in the assay on HS-PSS [2]; in the assay on STS26T [3]; in the assay with ST8814 [4]; in assay [5]; in the assay with S1507-2 [6]) was 0 throughout. Further, the drug sensitivity score (in [16]; with HS-PSS [17]; in the assay with STS26T [18]; in the assay with S462 [19]; in the assay on HS-Sch-2 [20]; with ST8814 [21]) was 0 throughout. Further, the drug sensitivity score stood at 0 in assay [22], 0.01 in the assay with YST-1 [23] and 0 in the assay on S1507-2 [24]. Moreover, the “% inhibition” value was 8.93% in [7]; 4.27% in the assay with HS-PSS [8]; 0.816% in the assay with STS26T [9]; -6.58 ± 4% with S462 [10]; 9.41% with HS-Sch-2 [11]; -3.13% with ST8814 [12]. For the same compound, the figures for the “% inhibition” value (in assay [13]; in the assay on YST-1 [14]; with S1507-2 [15]) were 5.73%, 10.4% and -3.59 ± 5.5%, respectively.

For orientation: % inhibition means the relative decrease from the control value, in per cent.
